Data from ChEMBL document CHEMBL5465560, “Selectivity Literature for EUbOPEN Chemogenomic Library” (2024).
Values belong to the compound of their own block, whether it stands above or below them.

Tests used:
[1] = biological target: T1, Dual specificity protein kinase TTK (Homo sapiens) (UniProt P33981); experiment: Selectivity interaction (Kinase panel (literature)) EUB0001199aCl TTK; conditions: at 1 µM
T1 sequence (whole entry): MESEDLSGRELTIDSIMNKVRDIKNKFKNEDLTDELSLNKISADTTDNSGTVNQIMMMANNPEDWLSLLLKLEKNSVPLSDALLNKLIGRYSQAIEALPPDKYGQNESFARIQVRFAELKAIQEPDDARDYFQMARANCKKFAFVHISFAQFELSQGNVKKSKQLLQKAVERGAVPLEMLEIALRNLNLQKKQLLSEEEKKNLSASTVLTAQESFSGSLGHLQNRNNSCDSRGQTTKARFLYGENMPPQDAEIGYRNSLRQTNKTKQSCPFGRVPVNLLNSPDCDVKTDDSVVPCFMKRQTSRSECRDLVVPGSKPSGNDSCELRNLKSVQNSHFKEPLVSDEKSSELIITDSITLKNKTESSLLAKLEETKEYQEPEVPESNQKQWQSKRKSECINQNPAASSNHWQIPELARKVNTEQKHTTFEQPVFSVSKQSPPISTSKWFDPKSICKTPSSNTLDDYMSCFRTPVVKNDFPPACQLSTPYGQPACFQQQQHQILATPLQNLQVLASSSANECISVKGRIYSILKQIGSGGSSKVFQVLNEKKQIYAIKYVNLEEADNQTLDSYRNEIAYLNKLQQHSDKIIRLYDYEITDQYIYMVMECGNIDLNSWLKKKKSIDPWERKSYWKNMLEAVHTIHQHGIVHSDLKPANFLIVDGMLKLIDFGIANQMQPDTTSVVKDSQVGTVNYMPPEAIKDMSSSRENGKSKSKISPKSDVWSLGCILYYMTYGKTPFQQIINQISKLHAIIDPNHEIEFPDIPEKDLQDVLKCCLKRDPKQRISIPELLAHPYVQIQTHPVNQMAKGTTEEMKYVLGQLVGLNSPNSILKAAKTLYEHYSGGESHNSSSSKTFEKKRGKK

[2] = biological target: T2, Serine/threonine-protein kinase tousled-like 1 (Homo sapiens) (UniProt Q9UKI8); experiment: Selectivity interaction (ActivX KiNativ screen (kinase selectivity in THP-1 cell lysates)) EUB0000639a TLK1; assay type: subcellular; conditions: lysate, at 1 µM
T2 sequence (whole entry): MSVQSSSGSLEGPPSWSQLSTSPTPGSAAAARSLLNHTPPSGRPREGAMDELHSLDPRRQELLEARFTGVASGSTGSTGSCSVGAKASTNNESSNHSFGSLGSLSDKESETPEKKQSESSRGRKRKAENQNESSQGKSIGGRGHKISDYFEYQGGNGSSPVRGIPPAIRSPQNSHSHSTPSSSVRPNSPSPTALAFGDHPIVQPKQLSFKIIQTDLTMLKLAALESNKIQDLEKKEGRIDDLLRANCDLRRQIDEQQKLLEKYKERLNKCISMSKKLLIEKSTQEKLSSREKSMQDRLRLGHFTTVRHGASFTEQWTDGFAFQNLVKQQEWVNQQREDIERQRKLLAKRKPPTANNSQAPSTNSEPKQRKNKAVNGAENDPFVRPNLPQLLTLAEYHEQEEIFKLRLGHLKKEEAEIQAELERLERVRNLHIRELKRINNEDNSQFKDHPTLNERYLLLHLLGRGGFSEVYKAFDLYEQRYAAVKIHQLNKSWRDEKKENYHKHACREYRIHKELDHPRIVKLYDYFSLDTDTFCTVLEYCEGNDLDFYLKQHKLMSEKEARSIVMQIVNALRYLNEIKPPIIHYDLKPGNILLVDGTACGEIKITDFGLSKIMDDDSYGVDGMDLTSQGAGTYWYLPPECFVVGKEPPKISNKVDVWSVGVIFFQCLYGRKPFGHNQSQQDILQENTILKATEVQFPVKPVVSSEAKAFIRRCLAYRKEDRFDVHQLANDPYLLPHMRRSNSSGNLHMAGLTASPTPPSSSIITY

[3] = biological target: T3, Inhibitor of nuclear factor kappa-B kinase subunit alpha (Homo sapiens) (UniProt O15111); experiment: Selectivity interaction (ProQinase) EUB0000171b CHUK
T3 sequence (whole entry): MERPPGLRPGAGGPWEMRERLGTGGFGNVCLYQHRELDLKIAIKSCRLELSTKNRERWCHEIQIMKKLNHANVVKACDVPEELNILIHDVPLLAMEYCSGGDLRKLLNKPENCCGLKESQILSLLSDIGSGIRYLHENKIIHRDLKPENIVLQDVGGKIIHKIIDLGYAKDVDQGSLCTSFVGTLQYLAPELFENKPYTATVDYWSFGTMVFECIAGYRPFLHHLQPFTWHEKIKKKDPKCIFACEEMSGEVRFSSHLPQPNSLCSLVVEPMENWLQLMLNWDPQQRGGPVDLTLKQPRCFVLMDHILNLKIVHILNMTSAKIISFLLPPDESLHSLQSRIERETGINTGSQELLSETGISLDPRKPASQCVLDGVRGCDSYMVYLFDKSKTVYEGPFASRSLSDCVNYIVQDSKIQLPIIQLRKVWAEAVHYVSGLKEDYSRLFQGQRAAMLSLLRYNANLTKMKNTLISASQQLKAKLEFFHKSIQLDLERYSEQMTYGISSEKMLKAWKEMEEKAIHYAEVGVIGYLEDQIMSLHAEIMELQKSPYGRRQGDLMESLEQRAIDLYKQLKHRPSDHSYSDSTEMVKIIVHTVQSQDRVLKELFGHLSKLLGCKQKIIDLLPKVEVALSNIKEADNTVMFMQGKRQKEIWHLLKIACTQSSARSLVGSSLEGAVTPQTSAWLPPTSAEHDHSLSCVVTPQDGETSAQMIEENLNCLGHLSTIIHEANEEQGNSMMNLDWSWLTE

[4] = biological target: Bromodomain-containing protein 3 (Homo sapiens) (UniProt Q15059); experiment: Selectivity interaction (Bromodomain panel (DSF asssay)) EUB0000270b BRD3
Bromodomain-containing protein 3 (Homo sapiens), sequence (Q15059 2-726 limits assumed): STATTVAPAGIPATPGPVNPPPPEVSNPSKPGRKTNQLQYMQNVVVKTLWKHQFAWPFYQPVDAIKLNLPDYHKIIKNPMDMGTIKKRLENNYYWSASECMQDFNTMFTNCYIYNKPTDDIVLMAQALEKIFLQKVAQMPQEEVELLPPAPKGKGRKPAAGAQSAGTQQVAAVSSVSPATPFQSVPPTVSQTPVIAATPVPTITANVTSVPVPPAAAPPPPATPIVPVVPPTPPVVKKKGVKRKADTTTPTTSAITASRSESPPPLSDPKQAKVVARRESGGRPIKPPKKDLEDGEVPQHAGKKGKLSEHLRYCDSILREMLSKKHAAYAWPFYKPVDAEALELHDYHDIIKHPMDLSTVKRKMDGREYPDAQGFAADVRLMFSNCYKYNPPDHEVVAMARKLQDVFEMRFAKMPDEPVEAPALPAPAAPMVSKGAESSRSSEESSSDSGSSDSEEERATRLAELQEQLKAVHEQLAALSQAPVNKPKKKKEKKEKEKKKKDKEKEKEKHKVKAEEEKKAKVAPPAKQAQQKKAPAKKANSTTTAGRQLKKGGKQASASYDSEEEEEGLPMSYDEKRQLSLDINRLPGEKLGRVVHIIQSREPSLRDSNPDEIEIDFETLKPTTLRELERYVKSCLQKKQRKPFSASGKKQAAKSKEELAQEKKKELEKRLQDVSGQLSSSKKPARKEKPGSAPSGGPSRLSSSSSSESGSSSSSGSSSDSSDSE

[5] = biological target: STE20-like serine/threonine-protein kinase (Homo sapiens, UniProt Q9H2G2); experiment: Selectivity interaction (Competition-binding assay (DiscoverX)) EUB0000229b SLK
STE20-like serine/threonine-protein kinase, sequence (Q9H2G2 whole entry): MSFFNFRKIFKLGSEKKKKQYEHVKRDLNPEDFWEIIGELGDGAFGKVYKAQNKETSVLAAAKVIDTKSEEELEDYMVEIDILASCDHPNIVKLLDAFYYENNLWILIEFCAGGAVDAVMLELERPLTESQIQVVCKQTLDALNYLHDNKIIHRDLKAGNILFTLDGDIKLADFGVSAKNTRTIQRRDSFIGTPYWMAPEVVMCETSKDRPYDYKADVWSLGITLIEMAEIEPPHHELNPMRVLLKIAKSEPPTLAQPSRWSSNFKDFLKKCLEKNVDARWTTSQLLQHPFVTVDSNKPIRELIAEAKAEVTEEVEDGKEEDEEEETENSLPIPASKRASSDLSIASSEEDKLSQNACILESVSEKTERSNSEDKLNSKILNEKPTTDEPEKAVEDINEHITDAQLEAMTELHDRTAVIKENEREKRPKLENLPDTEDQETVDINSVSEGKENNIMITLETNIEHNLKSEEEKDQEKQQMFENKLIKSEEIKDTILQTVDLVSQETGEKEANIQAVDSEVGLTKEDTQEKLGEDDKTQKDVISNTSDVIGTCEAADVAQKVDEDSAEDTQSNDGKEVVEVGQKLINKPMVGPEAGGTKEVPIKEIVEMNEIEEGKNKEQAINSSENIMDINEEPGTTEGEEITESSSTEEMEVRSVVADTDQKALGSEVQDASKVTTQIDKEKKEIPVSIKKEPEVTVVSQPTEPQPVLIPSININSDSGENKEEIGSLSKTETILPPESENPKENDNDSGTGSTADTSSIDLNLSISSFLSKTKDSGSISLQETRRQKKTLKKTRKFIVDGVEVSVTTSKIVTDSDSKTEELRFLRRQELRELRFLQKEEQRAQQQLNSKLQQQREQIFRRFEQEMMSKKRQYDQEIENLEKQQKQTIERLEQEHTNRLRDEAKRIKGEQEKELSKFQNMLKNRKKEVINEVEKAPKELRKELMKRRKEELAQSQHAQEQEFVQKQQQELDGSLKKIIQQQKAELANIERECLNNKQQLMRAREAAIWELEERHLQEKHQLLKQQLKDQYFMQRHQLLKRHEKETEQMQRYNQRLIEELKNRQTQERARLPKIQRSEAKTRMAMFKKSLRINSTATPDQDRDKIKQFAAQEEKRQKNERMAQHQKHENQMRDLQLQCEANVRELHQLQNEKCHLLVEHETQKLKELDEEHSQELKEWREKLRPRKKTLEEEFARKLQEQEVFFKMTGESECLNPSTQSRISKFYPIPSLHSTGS

[6] = biological target: Tyrosine-protein kinase Fes/Fps (Homo sapiens) (UniProt P07332); experiment: Selectivity interaction (KinomeScan (DiscoverX)) EUB0000092b FES; conditions: at 10 µM
Tyrosine-protein kinase Fes/Fps (Homo sapiens), sequence (P07332 whole entry): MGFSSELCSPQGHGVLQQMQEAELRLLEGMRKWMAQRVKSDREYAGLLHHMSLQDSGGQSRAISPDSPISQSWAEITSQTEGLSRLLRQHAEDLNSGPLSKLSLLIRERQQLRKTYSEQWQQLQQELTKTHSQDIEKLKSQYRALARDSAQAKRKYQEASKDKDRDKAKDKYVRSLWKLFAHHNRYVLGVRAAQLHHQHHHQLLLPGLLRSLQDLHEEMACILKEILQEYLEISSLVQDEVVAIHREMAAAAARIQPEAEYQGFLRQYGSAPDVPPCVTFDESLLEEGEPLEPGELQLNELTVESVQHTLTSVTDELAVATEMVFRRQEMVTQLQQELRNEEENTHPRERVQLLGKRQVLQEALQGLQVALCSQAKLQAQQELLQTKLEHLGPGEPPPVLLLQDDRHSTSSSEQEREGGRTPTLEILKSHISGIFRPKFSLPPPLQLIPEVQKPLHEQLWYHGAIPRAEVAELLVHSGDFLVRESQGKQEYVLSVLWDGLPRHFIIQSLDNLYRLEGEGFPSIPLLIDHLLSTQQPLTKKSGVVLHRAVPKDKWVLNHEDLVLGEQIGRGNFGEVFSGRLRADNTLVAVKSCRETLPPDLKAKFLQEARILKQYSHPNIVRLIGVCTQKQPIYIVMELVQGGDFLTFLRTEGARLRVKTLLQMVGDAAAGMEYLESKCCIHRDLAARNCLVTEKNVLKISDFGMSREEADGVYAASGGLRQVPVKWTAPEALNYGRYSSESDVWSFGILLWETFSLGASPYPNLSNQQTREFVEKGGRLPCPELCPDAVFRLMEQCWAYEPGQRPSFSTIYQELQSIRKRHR

[7] = biological target: Tyrosine-protein kinase Fgr (Homo sapiens) (UniProt P09769); experiment: Selectivity interaction (ActivX KiNativ screen (ex vivo kinase selectivity in human PBMCs)) EUB0001619a FGR; assay type: cell-based; conditions: PBMC, at 1 µM
Tyrosine-protein kinase Fgr (Homo sapiens), sequence (P09769 2-529 limits assumed): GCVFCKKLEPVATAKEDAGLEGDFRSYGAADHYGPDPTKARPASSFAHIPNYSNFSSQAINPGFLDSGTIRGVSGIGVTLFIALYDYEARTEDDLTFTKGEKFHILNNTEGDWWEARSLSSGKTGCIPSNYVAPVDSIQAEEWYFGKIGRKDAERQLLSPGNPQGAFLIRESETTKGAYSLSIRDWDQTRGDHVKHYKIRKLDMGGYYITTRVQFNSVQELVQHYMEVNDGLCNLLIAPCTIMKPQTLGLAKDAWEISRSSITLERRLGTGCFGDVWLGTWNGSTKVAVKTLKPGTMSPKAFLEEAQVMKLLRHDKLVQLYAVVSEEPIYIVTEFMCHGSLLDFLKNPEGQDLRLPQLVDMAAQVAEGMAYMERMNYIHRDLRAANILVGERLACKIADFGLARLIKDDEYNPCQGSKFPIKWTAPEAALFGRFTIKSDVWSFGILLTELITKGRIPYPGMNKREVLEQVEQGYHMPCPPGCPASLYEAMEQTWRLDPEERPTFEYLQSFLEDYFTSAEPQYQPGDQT

[8] = biological target: Microtubule-associated serine/threonine-protein kinase 1 (Homo sapiens) (UniProt Q9Y2H9); experiment: Selectivity interaction (KinomeScan (DiscoverX)) EUB0001619a MAST1; conditions: at 1 µM
Microtubule-associated serine/threonine-protein kinase 1 (Homo sapiens), sequence (Q9Y2H9 whole entry, looked up): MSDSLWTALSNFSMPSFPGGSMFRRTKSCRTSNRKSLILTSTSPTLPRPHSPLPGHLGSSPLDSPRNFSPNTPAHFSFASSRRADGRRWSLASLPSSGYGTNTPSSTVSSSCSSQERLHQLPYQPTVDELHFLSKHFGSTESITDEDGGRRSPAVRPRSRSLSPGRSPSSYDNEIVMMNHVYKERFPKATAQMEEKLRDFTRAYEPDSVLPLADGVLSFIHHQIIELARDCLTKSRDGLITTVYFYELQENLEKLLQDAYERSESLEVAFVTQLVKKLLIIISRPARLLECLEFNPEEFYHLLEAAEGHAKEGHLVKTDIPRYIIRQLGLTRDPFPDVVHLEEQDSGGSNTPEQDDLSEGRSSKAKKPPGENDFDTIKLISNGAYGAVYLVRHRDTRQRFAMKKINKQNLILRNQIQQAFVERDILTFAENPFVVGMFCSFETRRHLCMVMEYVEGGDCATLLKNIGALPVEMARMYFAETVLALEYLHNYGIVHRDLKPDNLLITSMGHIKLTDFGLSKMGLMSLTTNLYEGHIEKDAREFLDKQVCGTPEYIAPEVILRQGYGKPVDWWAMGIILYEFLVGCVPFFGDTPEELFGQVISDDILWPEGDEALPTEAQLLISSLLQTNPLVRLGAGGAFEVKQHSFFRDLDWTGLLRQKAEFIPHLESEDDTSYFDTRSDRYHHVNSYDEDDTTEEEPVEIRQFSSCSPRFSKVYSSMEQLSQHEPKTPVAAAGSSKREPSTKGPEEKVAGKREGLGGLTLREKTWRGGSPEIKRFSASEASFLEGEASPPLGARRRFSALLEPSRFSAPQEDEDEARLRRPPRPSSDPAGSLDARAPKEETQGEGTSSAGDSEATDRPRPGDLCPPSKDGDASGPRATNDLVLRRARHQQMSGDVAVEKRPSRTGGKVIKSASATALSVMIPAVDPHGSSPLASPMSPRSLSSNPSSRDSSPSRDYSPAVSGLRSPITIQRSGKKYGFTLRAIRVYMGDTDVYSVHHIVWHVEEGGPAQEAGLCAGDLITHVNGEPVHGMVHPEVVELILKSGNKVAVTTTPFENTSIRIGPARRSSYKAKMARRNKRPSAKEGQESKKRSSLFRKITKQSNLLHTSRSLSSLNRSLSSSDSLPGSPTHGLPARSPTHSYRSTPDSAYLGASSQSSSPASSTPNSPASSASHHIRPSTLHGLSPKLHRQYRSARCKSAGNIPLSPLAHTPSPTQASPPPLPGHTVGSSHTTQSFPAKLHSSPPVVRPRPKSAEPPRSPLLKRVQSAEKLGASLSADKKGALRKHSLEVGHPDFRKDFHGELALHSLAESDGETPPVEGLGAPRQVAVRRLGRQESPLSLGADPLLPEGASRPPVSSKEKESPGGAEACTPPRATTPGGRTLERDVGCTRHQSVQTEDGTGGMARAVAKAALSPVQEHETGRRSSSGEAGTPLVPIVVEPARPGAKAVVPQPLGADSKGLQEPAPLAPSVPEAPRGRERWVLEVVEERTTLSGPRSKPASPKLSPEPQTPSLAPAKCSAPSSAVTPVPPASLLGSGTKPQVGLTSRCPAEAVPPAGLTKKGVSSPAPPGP

% of inhibition [1]: -3%
Compound: CN1Cc2nccc(-c3cn(C)nc3-c3ccc(F)cc3)c2C1=O

% of inhibition [2]: 34.3%
Compound: CC[C@@H]1[C@H](F)C(=O)N[C@@H]1COc1nccc2cc(C(N)=O)c(OC)cc12 [ZIMLOVISERTIB]

% of control ([3]; at 1 µM): 78% | % of control ([3]; at 5 µM): 57%
Compound: C=CC(=O)Nc1cccc(C(=O)Nc2ccc(Nc3cc(-c4[nH]c(SC)nc4C)ccn3)cc2)c1

dTM [4]: -1.78 K
Compound: Cc1cc(CN)cc(C)c1-c1ncn(C)c1-c1cncn1C

Compound: COc1cc(N(C)c2ccnc3ccc(C(F)(F)F)cc23)cc(OC)c1OC
Kd [5]: > 10 µM

Compound: CCC(=O)N1CCN(c2ccc(-n3c(=O)ccc4cnc5ccc(-c6cnc7ccccc7c6)cc5c43)cc2C(F)(F)F)CC1
% of control [6]: 41%

Compound: N#Cc1cccc(-c2c[nH]c3ncnc(N4CCOCC4)c23)c1
% of inhibition [7]: 2% | % of control [8]: 73%
